# Reference: paper PMC12211128, “Safety, tolerability, pharmacokinetic and pharmacodynamic effects of the muscarinic M1 positive allosteric modulator VU0467319 for Alzheimer’s disease: a single ascending-dose study in healthy participants” (Alzheimer's Research & Therapy, 2025)
# “Also recorded” adds a separate entry of the source.
# How the values were obtained:
# [1] = Plasma pharmacokinetics, single ascending dose and food effect studies; format: in vivo, human; conditions: for %AUCext / AUC0 − last / AUC0−∞ / CL/F / Cmax / Vz/F / t½: mean (SD); for Tmax: median (min, max)
# Text: Participants were screened up to 40 days prior to admission to the Vanderbilt Clinical Research Center (CRC). At admission, participants had baseline vital signs, clinical laboratory parameters and ECG were collected. The participants stayed overnight at the CRC, and in the morning performed the pre-dose cognitive and electrophysiological (ERP) batteries. Following completion of these batteries, pre-dose blood and urine for pharmacokinetic (PK) analysis was collected, as well as a second set of baseline vital signs. Participants then received an oral dose of VU319 or placebo with water. VU319 doses were assessed in five dose escalating cohorts of eight participants (60, 120, 240, 400 & 600 mg). The initial dose of 60 mg was chosen by allometric scaling of the highest no observed adverse effect level (NOAEL) in animal species and reduced by a safety factor of 10. The increase in doses following the initial dose of 60 mg followed a modified Fibonacci sequence. In each cohort, six participants received oral VU319 while two participants received placebo. The randomization of participants to either placebo or active VU319 was done using a randomly permuted block procedure at a ratio of 1:3 for each of five dosages of VU319. Participants were required to remain in the CRC for 36 h after dosing for the first four cohorts, and for 48 h for the 600 mg cohort and the food effect study due to the change in PK sampling (discussed more below). Cognitive and ERP batteries were performed five hours post-dose. The decision to escalate to the next dose cohort was determined by review and approval from an independent safety monitoring committee, based on the PK data, as well as the safety and tolerability data from the preceding dose level.
# The food effect study was completed after the first 5 ascending cohorts, participants were dosed once in a fasted state and once following a controlled high fat breakfast. Based on the PK results of the single ascending dose cohorts (see results), the 120 mg dosage group was chosen for the food effect study. This dose was chosen as it was a low-middle dosage in which the pharmacokinetic parameters could move up or down depending on the addition of food. The food effect study consisted of twelve participants, ten of whom received oral 120 mg VU319, while the other two received placebo. The participants received VU319 or placebo on two separate visits to the Vanderbilt CRC. These visits were separated by at least 14 days to allow for washout. On one visit, participants were dosed in a fasted state, while on the other visit, participants were dosed 30 min after eating a controlled high-fat breakfast. The order of the fed/fast conditions were randomized and balanced so that half the cohort were dosed fasting first, and the other half fed first. Post-dose procedures were shifted 30 min to allow for breakfast, but otherwise all study procedures remained the same as in the ascending dose cohorts.
# Blood samples (4 mL) were obtained by direct venipuncture into K2 EDTA tubes at 0.5 h pre-dose and at 0.5, 1, 1.5, 2, 2.5, 3, 5, 7, 9, 12, 24, 26, 28, 36, 48 and 144-hours post-dose. […] Urine samples for PK quantification were collected at pre-dose and 2, 5, 12, 24, 36 and 144-hours post-dose.
# Determination of plasma and urine concentrations of VU319 and metabolite VU0481424 (VU424) was carried out in compliance with Good Laboratory Practice using a validated method at Illinois Institute of Technology Research Institute (IITRI) laboratories. Pharmacokinetic endpoints included the following VU319 parameters for plasma: area under the plasma concentration-time curve (AUC0 − 48); area under the plasma concentration-time curve extrapolated to infinity (AUC0−∞); percentage of the extrapolated area under the plasma concentration-time curve (%AUCextrap); maximum observed plasma concentration (Cmax); time (in hours) at which Cmax occurred (Tmax); clearance (Cl/F); elimination half-life (t1/2) and volume of distribution (Vd/F). […]
# [2] = system: M1 mAChR; conditions: cited from earlier work
# [3] = system: animal models; design: method as in PMID 39660766; conditions: preclinical and IND-enabling studies; cited from earlier work
# [4] = VU319 120 mg oral, fasted, food effect study
# [5] = VU319 120 mg oral, fed, food effect study
structure (smiles),measurement,setting,value
Cn1cc2c(-c3cc(F)c(CN4Cc5ncccc5C4=O)c(F)c3)cccc2n1 [VU319],"inter-participant variability (CV%) of Cmax, AUC0last, AUC0−∞","[1]; 120 mg, fasted and fed conditions",24–38%
same,AUC under fed vs fasted conditions,"[1]; 120 mg, food effect study",insignificantly higher
same,"Cmax under fed vs fasted conditions, higher by","[1]; 120 mg, food effect study",51%
same,"dose proportionality of systemic exposure (Cmax, AUC0 − last, AUC0−∞)","[1]; 60 to 600 mg, linear power model",less than dose-proportional
same,%AUCext,"[1]; VU319 60 mg oral, SAD",4.81 (6.18) %
same,AUC0 − last,"[1]; VU319 60 mg oral, SAD",36.8 (10.9) µg•h/mL
same,AUC0−∞,"[1]; VU319 60 mg oral, SAD",39.2 (13.3) µg•h/mL
same,CL/F,"[1]; VU319 60 mg oral, SAD",1.73 (0.71) L/h
same,Cmax,"[1]; VU319 60 mg oral, SAD",0.725 (0.209) µg/mL
same,Vz/F,"[1]; VU319 60 mg oral, SAD",71.8 (20.2) L
same,t½,"[1]; VU319 60 mg oral, SAD",31.5 (13.3) h
same,Tmax,"[1]; VU319 60 mg oral, SAD","7.00 (2.50, 9.00) h"
same,%AUCext,"[1]; VU319 120 mg oral, SAD",6.30 (3.55) %
same,AUC0 − last,"[1]; VU319 120 mg oral, SAD",60.1 (13.7) µg•h/mL
same,AUC0−∞,"[1]; VU319 120 mg oral, SAD",59.0 (9.07) µg•h/mL
same,CL/F,"[1]; VU319 120 mg oral, SAD",2.07 (0.28) L/h
same,Cmax,"[1]; VU319 120 mg oral, SAD",0.884 (0.312) µg/mL
same,Vz/F,"[1]; VU319 120 mg oral, SAD",107 (6.4) L
same,t½,"[1]; VU319 120 mg oral, SAD",55.4 (46.8) h
same,Tmax,"[1]; VU319 120 mg oral, SAD","5.00 (2.00, 24.0) h"
same,%AUCext,[1]; [4],5.86 (4.51) %
same,AUC0 − last,[1]; [4],56.8 (18.0) µg•h/mL
same,AUC0−∞,[1]; [4],60.7 (23.3) µg•h/mL
same,CL/F,[1]; [4],2.35 (1.15) L/h
same,Cmax,[1]; [4],0.985 (0.38) µg/mL
same,Vz/F,[1]; [4],94.4 (27.8) L
same,t½,[1]; [4],37.4 (15.9) h
same,Tmax,[1]; [4],"5.11 (2.50, 48.1) h"
same,%AUCext,[1]; [5],5.79 (4.31) %
same,AUC0 − last,[1]; [5],62.5 (15.6) µg•h/mL
same,AUC0−∞,[1]; [5],66.6 (19.3) µg•h/mL
same,CL/F,[1]; [5],2.01 (0.85) L/h
same,Cmax,[1]; [5],1.42 (0.344) µg/mL
same,Vz/F,[1]; [5],85.3 (16.4) L
same,t½,[1]; [5],36.9 (17.0) h
same,Tmax,[1]; [5],"5.02 (2.50, 8.97) h"
same,%AUCext,"[1]; VU319 240 mg oral, SAD",5.48 (6.31) %
same,AUC0 − last,"[1]; VU319 240 mg oral, SAD",63.8 (18.4) µg•h/mL
same,AUC0−∞,"[1]; VU319 240 mg oral, SAD",78.3 (15.2) µg•h/mL
same,CL/F,"[1]; VU319 240 mg oral, SAD",3.15 (0.58) L/h
same,Cmax,"[1]; VU319 240 mg oral, SAD",1.18 (0.425) µg/mL
same,Vz/F,"[1]; VU319 240 mg oral, SAD",143 (52.7) L
same,t½,"[1]; VU319 240 mg oral, SAD",35.0 (14.5) h
same,Tmax,"[1]; VU319 240 mg oral, SAD","9.50 (3.00, 24.0) h"
same,%AUCext,"[1]; VU319 400 mg oral, SAD",11.2 (4.73) %
same,AUC0 − last,"[1]; VU319 400 mg oral, SAD",132 (47.4) µg•h/mL
same,AUC0−∞,"[1]; VU319 400 mg oral, SAD",124 (32.0) µg•h/mL
same,CL/F,"[1]; VU319 400 mg oral, SAD",3.42 (0.96) L/h
same,Cmax,"[1]; VU319 400 mg oral, SAD",1.72 (0.447) µg/mL
same,Vz/F,"[1]; VU319 400 mg oral, SAD",219 (21.6) L
same,t½,"[1]; VU319 400 mg oral, SAD",46.2 (9.54) h
same,Tmax,"[1]; VU319 400 mg oral, SAD","5.98 (2.02, 48.2) h"
same,%AUCext,"[1]; VU319 600 mg oral, SAD",5.73 (2.41) %
same,AUC0 − last,"[1]; VU319 600 mg oral, SAD",207 (47.1) µg•h/mL
same,AUC0−∞,"[1]; VU319 600 mg oral, SAD",221 (54.6) µg•h/mL
same,CL/F,"[1]; VU319 600 mg oral, SAD",2.87 (0.77) L/h
same,Cmax,"[1]; VU319 600 mg oral, SAD",2.81 (0.64) µg/mL
same,Vz/F,"[1]; VU319 600 mg oral, SAD",123 (23.8) L
same,t½,"[1]; VU319 600 mg oral, SAD",30.4 (4.37) h
same,Tmax,"[1]; VU319 600 mg oral, SAD","5.01 (2.00, 48.0) h"
same,plasma half-life (initial findings),"[1]; first SAD cohorts, reason for changed sampling times",> 30 h
same,dose proportionality of systemic exposure,"[1]; higher doses, 240 to 600 mg",approximately proportional to dose
same,agonist properties at M1,[2],devoid of agonist properties; also recorded: lack of direct orthosteric agonism of M1 receptors
same,SLUDGE effects in animal models,[3],without producing SLUDGE effects
same,cognition in animal models,[3],effective at improving cognition
